Measurements reported in patent US11078170B2 (Assembly Biosciences, Inc., priority 2017, dated 2021).

System: HBV viral production from HepAD38 cells
Experiment: Activity of test compounds on viral production from HepAD38 cells (viral load by qPCR of HBV core sequence in supernatant)
Type: cell-based
Conditions: Hepatitis B virus, 120 h, 5 days incubation, HBV DNA in supernatant by qPCR, top concentration 10 μM, read-out: Viral Load EC50 Activity range
Summary of the method: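 HepAD38 cells, 50,000/well in tetracycline-free 2% FBS medium, treated 5 days at 37° C. with compound from 10 μM top concentration. HBV DNA in supernatant quantified by TaqMan qPCR of core sequence against DNA standards, relative to DMSO wells; CellTiter-Glo viability read in parallel. EC50/CC50 from four-parameter logistic fit.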

Row | SMILES | EC50
1 | CN1C(C(=O)Nc2ccc(F)c(Cl)c2)CC(c2cc(-c3nncn3C)cs2)NS1(=O)=O (racemic) [HBV-CSU-328, Cis-N-(3-chloro-4-fluorophenyl)-2-methyl-5-(4-(4-methyl-4H-1,2,4-triazol-3-yl)thiophen-2-yl)-1,2,6-thiadiazinane-3-carboxamide 1,1-dioxide] | < 1 µM
2 | CN1[C@@H](C(=O)Nc2ccc(F)c(Cl)c2)C[C@@H](c2ccc(-c3cncs3)s2)NS1(=O)=O [HBV-CSU-268-ISO-II, Cis-N-(3-Chloro-4-fluorophenyl)-2-methyl-5-(5-(thiazol-5-yl)thiophen-2-yl)-1,2,6-thiadiazinane-3-carboxamide 1,1-dioxide] | > 5 µM
3 | NC(=O)CN1C(C(=O)Nc2ccc(F)c(Cl)c2)CC(c2nccs2)NS1(=O)=O (centres unmarked) | 1 to 5 µM
4 | CN1C(C(=O)Nc2ccc(F)c(Cl)c2)CC(c2ccc(-c3cnn(C)c3)s2)NS1(=O)=O (racemic) [HBV-CSU-161, Cis-N-(3-chloro-4-fluorophenyl)-2-methyl-5-(5-(1-methyl-1H-pyrazol-4-yl)thiophen-2-yl)-1,2,6-thiadiazinane-3-carboxamide 1,1-dioxide] | < 1 µM
5 | CN1C(C(=O)Nc2ccc(F)c(Cl)c2)CC(c2ncc(-c3cnn(C)c3)s2)NS1(=O)=O (racemic) [HBV-CSU-177, Cis-N-(3-Chloro-4-fluorophenyl)-2-methyl-5-(5-(1-methyl-1H-pyrazol-4-yl)thiazol-2-yl)-1,2,6-thiadiazinane-3-carboxamide 1,1-dioxide] | < 1 µM
6 | CN1C(C(=O)Nc2cc(F)c(F)c(F)c2)CC(c2ccc(F)cc2)NS1(=O)=O (racemic) [HBV-CSU-212, Cis-5-(4-Fluorophenyl)-2-methyl-N-(3,4,5-trifluorophenyl)-1,2,6-thiadiazinane-3-carboxamide 1,1-dioxide] | < 1 µM
7 | Cc1sc(C2CC(C(=O)Nc3ccc(F)c(Cl)c3)N(C)S(=O)(=O)N2)cc1-c1cnn(C)c1 (racemic) [HBV-CSU-304, Cis-N-(3-Chloro-4-fluorophenyl)-2-methyl-5-(5-methyl-4-(1-methyl-1H-pyrazol-4-yl)thiophen-2-yl)-1,2,6-thiadiazinane-3-carboxamide 1,1-dioxide] | < 1 µM
8 | CN1[C@H](C(=O)Nc2ccc(F)c(Cl)c2)C[C@H](c2cc(-c3cnn(C(F)(F)F)c3)cs2)NS1(=O)=O [HBV-CSU-325-ISO-I, Cis-N-(3-Chloro-4-fluorophenyl)-2-methyl-5-(4-(1-(trifluoromethyl)-1H-pyrazol-4-yl)thiophen-2-yl)-1,2,6-thiadiazinane-3-carboxamide 1,1-dioxide] | < 1 µM
9 | CN1C(C(=O)Nc2ccc(F)c(Cl)c2)CC(c2cc(Br)c(Cl)s2)NS1(=O)=O (stereo not drawn) [HBV-CSU-330, Cis-5-(4-bromo-5-chlorothiophen-2-yl)-N-(3-chloro-4-fluorophenyl)-2-methyl-1,2,6-thiadiazinane-3-carboxamide 1,1-dioxide] | < 1 µM
10 | CN1C(C(=O)Nc2ccc(F)c(Cl)c2)CC(c2ncc(-c3cccnc3)s2)NS1(=O)=O (racemic) [HBV-CSU-175, Cis-N-(3-Chloro-4-fluorophenyl)-2-methyl-5-(5-(pyridin-3-yl)thiazol-2-yl)-1,2,6-thiadiazinane-3-carboxamide 1,1-dioxide] | < 1 µM
11 | CN1C(C(=O)Nc2ccc(F)c(Cl)c2)CC(c2ccc(-c3cnco3)s2)NS1(=O)=O (racemic) [HBV-CSU-269, Cis-N-(3-Chloro-4-fluorophenyl)-2-methyl-5-(5-(oxazol-5-yl)thiophen-2-yl)-1,2,6-thiadiazinane-3-carboxamide 1,1-dioxide] | < 1 µM
12 | C#CCCN1[C@@H](C(=O)Nc2ccc(F)c(Cl)c2)C[C@@H](c2nccs2)NS1(=O)=O [HBV-CSU-090-ISO-II, Cis-2-(But-3-yn-1-yl)-N-(3-chloro-4-fluorophenyl)-5-(thiazol-2-yl)-1,2,6-thiadiazinane-3-carboxamide 1,1-dioxide] | > 5 µM
13 | Cc1c(-c2csc([C@H]3C[C@@H](C(=O)Nc4ccc(F)c(Cl)c4)N(C)S(=O)(=O)N3)c2)cnn1C [HBV-CSU-315-ISO-I, Cis-N-(3-chloro-4-fluorophenyl)-5-(4-(1,5-dimethyl-1H-pyrazol-4-yl)thiophen-2-yl)-2-methyl-1,2,6-thiadiazinane-3-carboxamide 1,1-dioxide] | < 1 µM
14 | CN1[C@H](C(=O)Nc2ccc(F)c(Cl)c2)C[C@H](c2ccc(-c3nncn3C)s2)NS1(=O)=O [HBV-CSU-324-ISO-I, Cis-N-(3-Chloro-4-fluorophenyl)-2-methyl-5-(5-(4-methyl-4H-1,2,4-triazol-3-yl)thiophen-2-yl)-1,2,6-thiadiazinane-3-carboxamide 1,1-dioxide] | < 1 µM
15 | [2H]C1[C@]([2H])(C(=O)Nc2ccc(F)c(Cl)c2)N(C([2H])([2H])[2H])S(=O)(=O)N[C@]1([2H])c1ccc(Br)s1 (stereo in doubt) [HBV-CSU-372-ISO-II, Cis-5-(5-bromothiophen-2-yl)-N-(3-chloro-4-fluorophenyl)-2-(methyl-d3)-1,2,6-thiadiazinane-3,4,5-d3-3-carboxamide 1,1-dioxide] | 1 to 5 µM
16 | CN1[C@@H](C(=O)Nc2ccc(F)c(Cl)c2)C[C@@H](c2ccc(Cc3ccccc3)s2)NS1(=O)=O [HBV-CSU-117-ISO-II, Cis-(5-benzylthiophen-2-yl)-N-(3-chloro-4-fluorophenyl)-2-methyl-1,2,6-thiadiazinane-3-carboxamide 1,1-dioxide] | 1 to 5 µM
17 | COc1cccc(C2CC(C(=O)Nc3ccc(F)c(Cl)c3)N(C)S(=O)(=O)N2)c1 (stereo not drawn) [HBV-CSU-204, Cis-N-(3-Chloro-4-fluorophenyl)-5-(3-methoxyphenyl)-2-methyl-1,2,6-thiadiazinane-3-carboxamide 1,1-dioxide] | < 1 µM
18 | CN1[C@@H](C(=O)Nc2ccc(F)c(Cl)c2)C[C@@H](c2ncc(-c3ccc(NS(C)(=O)=O)cc3)s2)NS1(=O)=O [HBV-CSU-179-ISO-II, Cis-N-(3-Chloro-4-fluorophenyl)-2-methyl-5-(5-(4-(methylsulfonamido)phenyl)thiazol-2-yl)-1,2,6-thiadiazinane-3-carboxamide 1,1-dioxide] | 1 to 5 µM
19 | CN1[C@H](C(=O)Nc2ccc(F)c(Br)c2)C[C@H](c2ccc(F)cc2)NS1(=O)=O [HBV-CSU-211-ISO-I, Cis-N-(3-Bromo-4-fluorophenyl)-5-(4-fluorophenyl)-2-methyl-1,2,6-thiadiazinane-3-carboxamide 1,1-dioxide] | < 1 µM
20 | CN1[C@@H](C(=O)Nc2ccc(F)c(Cl)c2)C[C@@H](c2ccc(-c3ccc(F)cn3)s2)NS1(=O)=O [HBV-CSU-242-ISO-II, Cis-N-(3-chloro-4-fluorophenyl)-5-(5-(5-fluoropyridin-2-yl)thiophen-2-yl)-2-methyl-1,2,6-thiadiazinane-3-carboxamide 1,1-dioxide] | > 5 µM
21 | CN1C(C(=O)Nc2ccc(F)c(Cl)c2)CC(c2ncc(-c3cn(C)cn3)s2)NS1(=O)=O (racemic) [HBV-CSU-276, Cis-N-(3-Chloro-4-fluorophenyl)-2-methyl-5-(5-(1-methyl-1H-imidazol-4-yl)thiazol-2-yl)-1,2,6-thiadiazinane-3-carboxamide 1,1-dioxide] | < 1 µM
22 | CCn1cc(-c2ccc([C@@H]3C[C@H](C(=O)Nc4ccc(F)c(Cl)c4)N(C)S(=O)(=O)N3)s2)cn1 [HBV-CSU-291-ISO-II, Cis-N-(3-chloro-4-fluorophenyl)-5-(5-(1-ethyl-1H-pyrazol-4-yl)thiophen-2-yl)-2-methyl-1,2,6-thiadiazinane-3-carboxamide 1,1-dioxide] | > 5 µM
23 | CN1C(C(=O)Nc2ccc(F)c(Cl)c2)CC(c2ncc(-c3ccc(Br)c(F)c3)s2)NS1(=O)=O (racemic) [HBV-CSU-173, Cis-5-(5-(4-Bromo-3-fluorophenyl)thiazol-2-yl)-N-(3-chloro-4-fluorophenyl)-2-methyl-1,2,6-thiadiazinane-3-carboxamide 1,1-dioxide] | < 1 µM
24 | CN1C(C(=O)Nc2ccc(F)c(Cl)c2)CC(c2ccc(C(F)(F)F)cc2)NS1(=O)=O (racemic) [HBV-CSU-217, Cis-N-(3-Chloro-4-fluorophenyl)-2-methyl-5-(4-(trifluoromethyl)phenyl)-1,2,6-thiadiazinane-3-carboxamide 1,1-dioxide] | 1 to 5 µM
25 | CN1[C@H](C(=O)Nc2ccc(F)c(Cl)c2)C[C@H](c2ncc(-c3cccnc3)s2)NS1(=O)=O [HBV-CSU-175-ISO-I, Cis-N-(3-Chloro-4-fluorophenyl)-2-methyl-5-(5-(pyridin-3-yl)thiazol-2-yl)-1,2,6-thiadiazinane-3-carboxamide 1,1-dioxide] | < 1 µM
26 | CN1[C@H](C(=O)Nc2ccc(F)c(Cl)c2)C[C@H](c2cc(Br)cs2)NS1(=O)=O [HBV-CSU-146-ISO-I, 5-(4-Bromothiophen-2-yl)-N-(3-chloro-4-fluorophenyl)-2-methyl-1,2,6-thiadiazinane-3-carboxamide 1,1-dioxide] | < 1 µM
27 | CN1[C@H](C(=O)Nc2ccc(F)c(Cl)c2)C[C@H](c2ccnn2C)NS1(=O)=O [HBV-CSU-054-ISO-II, Cis-N-(3-Chloro-4-fluorophenyl)-2-methyl-5-(1-methyl-1H-pyrazol-5-yl)-1,2,6-thiadiazinane-3-carboxamide 1,1-dioxide] | 1 to 5 µM
28 | CN1[C@H](C(=O)Nc2ccc(F)c(Cl)c2)C[C@H](c2ccc(Cc3ccccc3)s2)NS1(=O)=O [HBV-CSU-117-ISO-I, Cis-(5-benzylthiophen-2-yl)-N-(3-chloro-4-fluorophenyl)-2-methyl-1,2,6-thiadiazinane-3-carboxamide 1,1-dioxide] | < 1 µM
29 | CN1C(C(=O)Nc2ccc(F)c(Cl)c2)CC(c2cc(-c3cnn(CCO)c3)cs2)NS1(=O)=O (racemic) [HBV-CSU-296, Cis-N-(3-chloro-4-fluorophenyl)-5-(4-(1-(2-hydroxyethyl)-1H-pyrazol-4-yl)thiophen-2-yl)-2-methyl-1,2,6-thiadiazinane-3-carboxamide 1,1-dioxide] | 1 to 5 µM
